molecular target: T1, recombinant human 15-PGDH (Homo sapiens, UniProt P15428); test: 15-PGDH enzyme inhibition test; assay type: biochemical; conditions: 4 nM recombinant human 15-PGDH, 30 μM PGE2, 1 mM NAD+, 60 minutes after starting the reaction; read-out: IC50 Value
T1 construct: purchased R&D Systems
T1 sequence (P15428 1-266): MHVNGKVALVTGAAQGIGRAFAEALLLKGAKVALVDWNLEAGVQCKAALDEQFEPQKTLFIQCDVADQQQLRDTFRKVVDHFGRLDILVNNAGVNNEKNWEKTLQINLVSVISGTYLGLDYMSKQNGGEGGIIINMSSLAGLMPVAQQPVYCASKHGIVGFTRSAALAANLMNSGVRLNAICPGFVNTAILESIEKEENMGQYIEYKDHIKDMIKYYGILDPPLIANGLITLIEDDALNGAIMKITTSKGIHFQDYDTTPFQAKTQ
Summary of the method: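 4 nM recombinant human enzyme pre-incubated with compound 12 min at room temperature in 50 mM Tris-HCl pH 8.0 with 0.01% Tween 20 and 0.01% bovine gamma globulin. Reaction started with 30 μM PGE2 and 1 mM NAD+, read after 60 min by fluorescence (ex 340/em 440 nm). IC50 from concentration-response curve.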

SMILES | IC50
CN1C(=O)c2ccc(N3CCOc4cc(C(=O)N5CCCCC5)cnc43)cc2S1(=O)=O [Example 1-165] | < 10 nM
O=C(c1cnc2c(c1)OCCN2c1ccc2c(c1)C(C1CC1)=NS2(=O)=O)N1CCCCC1 [Example 1-167] | 10 to 100 nM
Cn1nc2cc(N3CCN(c4ncc(Cl)s4)c4cc(C(=O)N5CCC(F)(F)CC5)cnc43)ccn2c1=O [Example 30-4] | < 10 nM
CN1C(=O)c2ccc(N3CCOc4cc(C(=O)N5CCCCC5)cnc43)cc2C1=O [Example 1-166] | < 10 nM
Cn1cnc2cc(N3CCCc4cc(C(=O)N5CCC(F)(F)CC5)cnc43)cnc2c1=O [Example 1-191] | < 10 nM
COC(=O)c1cc2sc(N3CCOc4cc(C(=O)N5CCCCC5)cnc43)cc2s1 [Example 1-24] | < 10 nM
CCn1nc2cc(N3CCCc4cc(C(=O)N5CCC[C@@H](C(F)(F)F)C5)cnc43)ccn2c1=O [Example 8-170] | 10 to 100 nM
CCn1nc2cc(N3CCCc4cc(C(=O)N5CCCC[C@@H]5C)cnc43)ccn2c1=O [Example 8-158] | < 10 nM
C[C@@H]1CCN(C(=O)c2cnc3c(c2)OCCN3c2ccn3c(=O)n(C)nc3c2)C1 [Example 8-32] | < 10 nM
O=C(O)c1ccc(N2CCCCOc3cc(C(=O)N4CCCCC4)cnc32)cc1 [Example 2-9] | < 10 nM
COCCn1nc2cc(N3CCCc4cc(C(=O)N5CCCCC5)cnc43)ccn2c1=O [Example 1-55] | < 10 nM
Cn1ncc2cc(N3CCCc4cc(C(=O)N5CCCCC5)cnc43)cnc2c1=O [Example 1-194] | < 10 nM
CCn1nc2cc(N3CCCc4cc(C(=O)N5CCC[C@@H](F)C5)cnc43)ccn2c1=O [Example 8-162] | < 10 nM
CN1Cc2cc(N3CCOc4cc(C(=O)N5CCc6ccccc6C5)cnc43)ccc2C1=O [Example 8-192] | < 10 nM
CN1Cc2cc(N3CCOc4cc(C(=O)N5CCCCCCC5)cnc43)ccc2C1=O [Example 8-187] | < 10 nM
COCCN1Cc2cc(N3CCOc4cc(C(=O)N5CCC(F)(F)CC5)cnc43)ncc2C1=O [Example 1-266] | 10 to 100 nM
Cn1nc2cc(N3CCOc4cc([S+]([O-])C5CCCCC5)cnc43)ccn2c1=O (centres unmarked) [Example 7-5] | < 10 nM
COc1cc(N2CCOc3cc(C(=O)N4CCCCC4)cnc32)ccc1C(=O)O [Example 4-15] | 10 to 100 nM
O=C(O)c1ccc(N2CCCOc3cc(C(=O)N4CCCCC4)ccc32)cc1 [Example 2-5] | < 10 nM
CC(C)(O)c1ccc(N2CCOc3c2ccc(C(=O)N2CCCCC2)c3Cl)cc1 [Example 10-2] | < 10 nM
CCCn1nc2cc(N3CCOc4cc(C(=O)N5CCCCC5)cnc43)ccn2c1=O [Example 1-215] | < 10 nM
COCCOCCn1nc2cc(N3CCCc4cc(C(=O)N5CCC[C@@H](CF)C5)cnc43)ccn2c1=O [Example 1-125] | < 10 nM
CN1Cc2cc(N3CCOc4cc(C(=O)N5CCCCC5)cnc43)ncc2C1=O [Example 1-103] | < 10 nM
CN1Cc2cc(N3CCOc4cc(C(=O)N5CCC[C@H](C(F)(F)F)C5)cnc43)ccc2C1=O [Example 8-208] | < 10 nM
O=C(NC1COC1)c1ccc(N2CCCc3cc(C(=O)N4CCCCC4)cnc32)cc1F [Example 1-62] | < 10 nM

SMILES | IC50
Cn1nc2cc(N3CCOc4cc(C(=O)N5CCC[C@@H](C(F)(F)F)C5)cnc43)ccn2c1=O [Example 8-115] | < 10 nM
O=C(O)c1ccc(N2CCSc3cc(C(=O)N4CCCCC4)ccc32)cc1 [Example 2-15] | < 10 nM
Cn1nc2cc(N3CCCOc4cc(C(=O)N5CCCCCC5)cnc43)ccn2c1=O [Example 8-59] | < 10 nM
Cn1nc2cc(N3CCCc4cc(C(=O)N5CC=CCC5)cnc43)ccn2c1=O [Example 8-129] | < 10 nM
O=C(O)c1cccc(N2CCc3cc(C(=O)N4CCCCC4)ccc32)c1 [Example 2-29] | < 10 nM
CN1Cc2cc(N3CCOc4cc(C(=O)N5CCC[C@@H](C(F)(F)F)C5)cnc43)ccc2C1=O [Example 8-207] | < 10 nM
C[C@@H]1CCCCN1C(=O)c1cnc2c(c1)OCCN2c1ccc2c(c1)CN(C)C2=O [Example 8-195] | < 10 nM
CCN1Cc2cc(N3CCOc4cc(C(=O)N5CCC(F)(F)CC5)cnc43)ccc2C1=O [Example 8-212] | < 10 nM
Cn1nc2cc(N3CCOc4cc(C(=O)C5CCCCC5)cnc43)ccn2c1=O [Example 1-111] | < 10 nM
Cn1nc2cc(N3CCN(c4ccc(C#N)cc4)c4cc(C(=O)N5CCC(F)(F)CC5)cnc43)ccn2c1=O [Example 30-2] | 10 to 100 nM
CCN1Cc2cc(N3CCCc4cc(C(=O)N5CCC(F)CC5)cnc43)ccc2C1=O [Example 8-86] | < 10 nM
COc1c(C(=O)N2CCCCC2)ccc2c1OCCN2c1ccc(C(=O)O)cc1 [Example 2-2] | < 10 nM
Cc1c(C(=O)N2CCCCC2)ccc2c1OCCN2c1ccc(C(=O)O)cc1 [Example 4-1, 4-(8-Methyl-7-(piperidine-1-carbonyl)-2,3-dihydro-4H-benzo[b][1,4]oxazin-4-yl)benzoic Acid] | < 10 nM
Cn1nc2cc(N3CCCc4cc(C(=O)N5CCCC(C)(F)C5)cnc43)ccn2c1=O (centres unmarked) [Example 8-141] | < 10 nM
O=C(c1cnc2c(c1)CCCN2c1cc2c(cn1)C(=O)N(CC1COC1)C2)N1CCCCC1 [Example 1-168] | 10 to 100 nM
CCOCCN1Cc2cc(N3CCCc4cc(C(=O)N5CCC(F)(F)CC5)cnc43)ncc2C1=O [Example 1-185] | 10 to 100 nM
O=C(c1cnc2c(c1)CCCN2c1ccc2c(=O)[nH]ccc2c1)N1CCC(F)(F)CC1 [Example 1-181] | < 10 nM
Cn1nc2cc(N3CCCOc4cc(C(=O)N5CCC5)cnc43)ccn2c1=O [Example 8-57] | < 10 nM
O=C(c1cnc2c(c1)OCCN2c1ccn2nnnc2c1)N1CCCCC1 [Example 1-104] | < 10 nM
CCn1nc2cc(N3CCOc4cc(C(=O)N5CCC5)cnc43)ccn2c1=O [Example 8-16] | < 10 nM
O=C(O)CCc1ccc(N2CCOc3cc(C(=O)N4CCCCC4)ccc32)cc1 [Example 2-33] | < 10 nM
Cn1nc2cc(N3CCOc4cc(C(=O)N5CCC(Cl)CC5)cnc43)ccn2c1=O [Example 8-113] | < 10 nM
Cc1cc(N2CCOc3cc(C(=O)N4CCCCC4)cnc32)ccc1C(=O)O [Example 4-16] | < 10 nM
CCn1oc2cc(N3CCOc4cc(C(=O)N5CCC(F)(F)CC5)cnc43)ccc2c1=O [Example 8-214] | < 10 nM
COCCNC(=O)c1ccc(N2CCCc3cc(C(=O)N4CCC(F)(F)CC4)cnc32)cc1F [Example 1-176] | < 10 nM

SMILES | IC50
COCCn1nc2cc(N3CCCc4cc(C(=O)N5CCC(F)(F)CC5)cnc43)ccn2c1=O [Example 1-78] | < 10 nM
CCn1nc2cc(N3CCCc4cc(C(=O)N5Cc6ccccc6C5)cnc43)ccn2c1=O [Example 8-156] | < 10 nM
Cn1cnc2cc(N3CCOc4cc(C(=O)N5CCCCC5)cnc43)ncc2c1=O [Example 1-39] | 10 to 100 nM
CN1Cc2cc(N3CCOc4cc(C(=O)N5CCCCC5)cnc43)ccc2C1=O [Example 1-23] | < 10 nM
Cn1nc2cc(N3CCOc4cc(C(=O)N5CC(C)(F)C5)cnc43)ccn2c1=O [Example 8-50] | < 10 nM
O=C(c1cnc2c(c1)OCCN2c1ccncc1)N1CCCCC1 [Example 1-233] | 10 to 100 nM
O=C(O)c1ccc(N2CC[S+]([O-])c3cc(C(=O)N4CCCCC4)ccc32)cc1 (centres unmarked) [Example 2-16] | 10 to 100 nM
COC(=O)c1ccc(N2CCOc3cc(C(=O)N4CCCCC4)ccc32)cc1 [Example 1-7] | < 10 nM
Cn1nc2cc(N3CCOc4cc(S(=O)(=O)C5CCCCC5)cnc43)ccn2c1=O [Example 7-6] | > 100 nM
COc1c(C(=O)N2CCCCC2)ccc2c1OCCN2c1ccn2c(=O)n(C)nc2c1 [Example 1-100] | < 10 nM
CCn1nc2cc(N3CCOc4cc(C(=O)N5CCCCCCC5)cnc43)ccn2c1=O [Example 8-17] | < 10 nM
O=C(c1cnc2c(c1)OCCN2c1ccn2c(=O)n(Cc3ccccc3)nc2c1)N1CCCCC1 [Example 1-31] | < 10 nM
Cn1nc2cc(N3CCOc4cc(C(=O)N5CCC(F)CC5)cnc43)ccn2c1=O [Example 8-114] | < 10 nM
CCn1nc2cc(N3CCOc4cc(C(=O)N5CCN(C)C(=O)C5)cnc43)ccn2c1=O [Example 8-221] | > 100 nM
COC(=O)c1cn(C)c2cc(N3CCOc4cc(C(=O)N5CCCCC5)cnc43)ccc12 [Example 1-90] | 10 to 100 nM
Cn1nc2cc(N3CCOc4cc(C(=O)N5CCC[C@H](CF)C5)cnc43)ccn2c1=O [Example 8-65] | < 10 nM
CNC(=O)c1ccc(N2CCOc3cc(C(=O)N4CCCCC4)cnc32)cn1 [Example 6-22] | < 10 nM
O=C(O)c1ccc(N2CCOc3cc(C(=O)N4CCCCC4)cnc32)cn1 [Example 2-38] | < 10 nM
CN1Cc2cc(N3CCOc4cc(C(=O)N5CCCC(C)(F)C5)cnc43)ccc2C1=O (centres unmarked) [Example 8-209] | < 10 nM
CNC(=O)c1ccc(N2CCCc3cc(C(=O)N4CCCCC4)cnc32)cc1 [Example 1-204] | < 10 nM
Cn1nc2cc(N3CCOc4cc(C(O)C5CCC(F)(F)CC5)cnc43)ccn2c1=O (centres unmarked) [Example 19-2] | 10 to 100 nM
Cn1nc2cc(N3CCOc4cc(C(=O)N5CCc6ccccc65)cnc43)ccn2c1=O [Example 8-104] | 10 to 100 nM
CCN1Cc2cc(N3CCCc4cc(C(=O)N5CCCC[C@H]5C)cnc43)ccc2C1=O [Example 8-78] | < 10 nM

same assay, conditions: IC50 Value, 4 nM recombinant human 15-PGDH, 30 μM PGE2, 1 mM NAD+, 60 minutes after starting the reaction

SMILES | IC50
Cn1nc2cc(N3CCOc4cc(C(=O)N5CCC(=O)CC5)cnc43)ccn2c1=O [Example 8-112] | 10 to 100 nM

From patent publication US12577217B2, “15-PGDH inhibitor” (KYORIN Pharmaceutical Co., Ltd., priority 2019, dated 2026)
